This note sets out measurements from patent US10933063B2 (priority 2017, dated 2021).

The target of this assay is BTK (Homo sapiens (Human), UniProt Q06187). Nature of the assay: biochemical.
Sequence of BTK (Q06187 whole entry, looked up, species assumed): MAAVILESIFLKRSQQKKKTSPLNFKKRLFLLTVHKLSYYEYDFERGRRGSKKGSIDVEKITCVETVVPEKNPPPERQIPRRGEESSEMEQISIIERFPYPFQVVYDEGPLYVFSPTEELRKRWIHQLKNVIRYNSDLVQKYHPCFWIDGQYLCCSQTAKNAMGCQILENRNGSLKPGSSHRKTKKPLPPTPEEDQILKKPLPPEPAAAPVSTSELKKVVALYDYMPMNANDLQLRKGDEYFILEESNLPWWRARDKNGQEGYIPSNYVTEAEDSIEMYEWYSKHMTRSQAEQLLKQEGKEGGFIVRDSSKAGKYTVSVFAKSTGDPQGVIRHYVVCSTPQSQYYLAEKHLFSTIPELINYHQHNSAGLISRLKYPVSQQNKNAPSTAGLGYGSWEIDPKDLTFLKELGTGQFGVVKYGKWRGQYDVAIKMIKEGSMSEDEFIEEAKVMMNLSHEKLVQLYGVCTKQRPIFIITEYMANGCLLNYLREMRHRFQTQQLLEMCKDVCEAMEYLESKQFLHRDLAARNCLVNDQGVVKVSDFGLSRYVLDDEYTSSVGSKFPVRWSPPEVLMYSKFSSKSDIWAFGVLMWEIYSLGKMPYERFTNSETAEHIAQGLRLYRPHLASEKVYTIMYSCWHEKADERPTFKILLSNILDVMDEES
In the case of `CC#CC(=O)N1CCCC[C@H]1c1nc(-c2ccc(Oc3cccc(OC)c3)cc2)c2cnccn12` [Example 59, (S)-1-(2-(1-(4-(3-methoxyphenoxy)phenyl)imidazo[1,5-a]pyrazin-3-yl)piperidin-1-yl)but-2-yn-1-one], the IC50 lay within 100 to 1000 nM.

The compound `CC#CC(=O)N1CCC[C@H]1c1nc(-c2ccc(C(=O)Nc3ccccn3)cc2)c2cncc(C)n12` [Example 173, (S)-4-(3-(1-(but-2-ynoyl)pyrrolidin-2-yl)-5-methylimidazo[1,5-a]pyrazin-1-yl)-N-(pyridin-2-yl)benzamide] registered an IC50 of 1000 to 10000 nM.

As to `C=CC(=O)N1CCCC[C@H]1c1nc(-c2ccc(Oc3cccc(OC)c3F)cc2)c2c(C)ncc(C)n12` [Example 80, (S)-1-(2-(1-(4-(2-fluoro-3-methoxyphenoxy)phenyl)-5,8-dimethylimidazo[1,5-a]pyrazin-3-yl)piperidin-1-yl)prop-2-en-1-one], the 50% inhibitory concentration (IC50) was 10 to 100 nM.

`C=CC(=O)N1CCC[C@H]1c1nc(-c2ccc(Oc3ccccc3)cc2Cl)c2cnccn12` [Example 13, (S)-1-(2-(1-(2-chloro-4-phenoxyphenyl)imidazo[1,5-a]pyrazin-3-yl)pyrrolidin-1-yl)prop-2-en-1-one] registered a half-inhibitory concentration (IC50) of 10 to 100 nM.

In turn, `C=CC(=O)N1CCCC[C@H]1c1nc(-c2ccc(OCc3cccc(F)c3)cc2)c2c(C)nccn12` [Example 139, (S)-1-(2-(1-(4-((3-fluorobenzyl)oxy)phenyl)-8-methylimidazo[1,5-a]pyrazin-3-yl)piperidin-1-yl)prop-2-en-1-one] had an IC50 of 10 to 100 nM.

With `C=CC(=O)N1CCCC[C@H]1c1nc(-c2cccc(OCc3cccc(C(F)(F)F)c3)c2)c2c(C)nccn12` [Example 162, (S)-1-(2-(8-methyl-1-(3-((3-(trifluoromethyl)benzyl)oxy)phenyl)imidazo[1,5-a]pyrazin-3-yl)piperidin-1-yl)prop-2-en-1-one], the half-maximal inhibitory concentration (IC50) fell in the range of 1000 to 10000 nM.

Turning to `CC#CC(=O)N1CCC[C@H]1c1nc(-c2ccc(Oc3cccc(OC)c3F)cc2)c2cncc(C)n12` [Example 63, (S)-1-(2-(1-(4-(2-fluoro-3-methoxyphenoxy)phenyl)-5-methylimidazo[1,5-a]pyrazin-3-yl)pyrrolidin-1-yl)but-2-yn-1-one], the half-inhibitory concentration (IC50) lay in the range of 100 to 1000 nM.

Take `CC#CC(=O)N1CCCC[C@H]1c1nc(-c2ccc(Oc3cccc(Cl)c3F)cc2)c2c(C)nccn12` [Example 43, (S)-1-(2-(1-(4-(3-chloro-2-fluorophenoxy)phenyl)-8-methylimidazo[1,5-a]pyrazin-3-yl)piperidin-1-yl)but-2-yn-1-one]: the IC50 lay in the range of 10 to 100 nM.

Take `CC#CC(=O)N1CCCC[C@H]1c1nc(-c2ccc(C(=O)Nc3ccccn3)cc2)c2cncc(C)n12` [Example 187, (S)-4-(3-(1-(but-2-ynoyl)piperidin-2-yl)-5-methylimidazo[1,5-a]pyrazin-1-yl)-N-(pyridin-2-yl)benzamide]: the half-maximal inhibitory concentration (IC50) lay in the range of 1000 to 10000 nM.

Turning to `C=CC(=O)N1CCC[C@H]1c1nc(-c2ccc(COc3cccc(OC)c3F)cc2)c2cnccn12` [Example 161, (S)-1-(2-(1-(4-((2-fluoro-3-methoxyphenoxy)methyl)phenyl)imidazo[1,5-a]pyrazin-3-yl)pyrrolidin-1-yl)prop-2-en-1-one], the half-inhibitory concentration (IC50) was 10 to 100 nM.

On to `CC#CC(=O)N1CCC[C@H]1c1nc(-c2ccc(C(=O)Nc3cc(C(F)(F)F)ccn3)cc2F)c2c(CO)nccn12` [Example 208, (S)-4-(3-(1-(but-2-ynoyl)pyrrolidin-2-yl)-8-(hydroxymethyl)imidazo [1,5-a]pyrazin-1-yl)-3-fluoro-N-(4-(trifluoromethyl)pyridin-2-yl)benzamide], for which the IC50 lay within 100 to 1000 nM.

Compound `C=CC(=O)N1CCC[C@H]1c1nc(-c2ccc(COc3ccccc3)cc2)c2cnccn12` [Example 143, (S)-1-(2-(1-(4-(phenoxymethyl)phenyl)imidazo[1,5-a]pyrazin-3-yl)pyrrolidin-1-yl)prop-2-en-1-one] had a concentration for half-maximal inhibition (IC50) of 10 to 100 nM.

The compound `CC#CC(=O)N1CCC[C@H]1c1nc(-c2ccc(OCc3cccc(F)c3)cc2)c2cnccn12` [Example 138, (S)-1-(2-(1-(4-((3-fluorobenzyl)oxy)phenyl)imidazo[1,5-a]pyrazin-3-yl)pyrrolidin-1-yl)but-2-yn-1-one] showed an IC50 of 1000 to 10000 nM.

For the compound `CC#CC(=O)N1CCCC[C@H]1c1nc(-c2ccc(Oc3cccc(OC)c3)cc2)c2c(C)nccn12` [Example 49, (S)-1-(2-(1-(4-(3-methoxyphenoxy)phenyl)-8-methylimidazo[1,5-a]pyrazin-3-yl)piperidin-1-yl)but-2-yn-1-one], the IC50 lay within 10 to 100 nM.

Take `CC#CC(=O)N1CC[C@@H](c2nc(-c3ccc(Oc4cccc(OC)c4F)cc3)c3cncc(C)n23)C1` [Example 73, (R)-1-(3-(1-(4-(2-fluoro-3-methoxyphenoxy)phenyl)-5-methylimidazo[1,5-a]pyrazin-3-yl)pyrrolidin-1-yl)but-2-yn-1-one]: the concentration for half-maximal inhibition (IC50) was in the range of 10 to 100 nM.

On to `CC#CC(=O)N1CC[C@@H](c2nc(-c3ccc(C(=O)Nc4cc(C(F)(F)F)ccn4)cc3F)c3cnccn23)C1` [Example 212, (R)-4-(3-(1-(but-2-ynoyl)pyrrolidin-3-yl)imidazo [1,5-a]pyrazin-1-yl)-3-fluoro-N-(4-(trifluoromethyl)pyridin-2-yl)benzamide], for which the half-inhibitory concentration (IC50) was 10 to 100 nM.

`C=CC(=O)N1CCC[C@H]1c1nc(-c2ccc(Oc3cccc(OC)c3F)cc2)c2c(C(N)=O)nccn12` [Example 37, (S)-3-(1-acryloylpyrrolidin-2-yl)-1-(4-(2-fluoro-3-methoxyphenoxy)phenyl)imidazo[1,5-a]pyrazine-8-carboxamide] showed an IC50 of 1000 to 10000 nM.

For the compound `C=CC(=O)N1CCCC[C@H]1c1nc(-c2ccc(Oc3cccc(OC)c3F)cc2)c2c(C(F)(F)F)nccn12` [Example 121, (S)-1-(2-(1-(4-(2-fluoro-3-methoxyphenoxy)phenyl)-8-(trifluoromethyl)imidazo[1,5-a]pyrazin-3-yl)piperidin-1-yl)prop-2-en-1-one], the IC50 lay in the range of 1000 to 10000 nM.

Turning to `C=CC(=O)N1CCC[C@H]1c1nc(-c2ccc(COc3ccc(F)cc3)cc2)c2cnccn12` [Example 126, (S)-1-(2-(1-(4-((4-fluorophenoxy)methyl)phenyl)imidazo[1,5-a]pyrazin-3-yl)pyrrolidin-1-yl)prop-2-en-1-one], the IC50 was 10 to 100 nM.

`C=CC(=O)N1CC[C@@H](c2nc(-c3ccc(C(=O)Nc4ccccn4)cc3)c3c(C)ncc(C)n23)C1` [Example 182, (R)-4-(3-(1-acryloylpyrrolidin-3-yl)-5,8-dimethylimidazo [1,5-a]pyrazin-1-yl)-N-(pyridin-2-yl)benzamide]: the half-maximal inhibitory concentration (IC50) lay within 10 to 100 nM.

Regarding `C=CC(=O)N1CCC[C@H]1c1nc(-c2ccc(Oc3ccccc3)nc2)c2cnccn12` [Example 4, (S)-1-(2-(1-(6-Phenoxypyridin-3-yl)imidazo[1,5-a]pyrazin-3-yl)pyrrolidin-1-yl)prop-2-en-1-one], the 50% inhibitory concentration (IC50) is 100 to 1000 nM.

Compound `CC#CC(=O)N1CCCC[C@H]1c1nc(-c2ccc(Oc3cccc(OC)c3F)cc2)c2cnccn12` [Example 25, (S)-1-(2-(1-(4-(2-fluoro-3-methoxyphenoxy)phenyl)imidazo[1,5-a]pyrazin-3-yl)piperidin-1-yl)but-2-yn-1-one] gave an IC50 of 10 to 100 nM.

Consider `C=CC(=O)N1CCC[C@H]1c1nc(-c2ccc(Oc3cccc(OC)c3F)cc2)c2c(O)nccn12` [Example 36, (S)-1-(2-(1-(4-(2-fluoro-3-methoxyphenoxy)phenyl)-8-hydroxyimidazo[1,5-a]pyrazin-3-yl)pyrrolidin-1-yl)prop-2-en-1-one], for which the IC50 lay within 10 to 100 nM.

Take `CC#CC(=O)N1CC[C@@H](c2nc(-c3ccc(C(=O)Nc4ccccn4)cc3)c3cncc(OCC)n23)C1` [Example 193, (R)-4-(3-(1-(but-2-ynoyl)pyrrolidin-3-yl)-5-ethoxyimidazo[1,5-a]pyrazin-1-yl)-N-(pyridin-2-yl)benzamide]: the half-inhibitory concentration (IC50) fell in the range of 100 to 1000 nM.

Take `C=CC(=O)N1CCCC[C@H]1c1nc(-c2ccc(Oc3cccc(OC)c3F)cc2)c2c(C(=O)OC)nccn12` [Example 66, methyl (S)-3-(1-acryloylpiperidin-2-yl)-1-(4-(2-fluoro-3-methoxyphenoxy)phenyl)imidazo[1,5-a]pyrazine-8-carboxylate]: the IC50 was 1000 to 10000 nM.

Turning to `CC#CC(=O)N1CCC[C@H]1c1nc(-c2ccc(OCc3cccc(Cl)c3)cc2)c2cnccn12` [Example 142, (S)-1-(2-(1-(4-((3-chlorobenzyl)oxy)phenyl)imidazo[1,5-a]pyrazin-3-yl)pyrrolidin-1-yl)but-2-yn-1-one], the 50% inhibitory concentration (IC50) fell in the range of 1000 to 10000 nM.

`C=CC(=O)N1CCC[C@H]1c1nc(-c2ccc(C(=O)Nc3cccc(OC)c3F)cc2)c2cnccn12` [Example 165, (S)-4-(3-(1-acryloylpyrrolidin-2-yl)imidazo[1,5-a]pyrazin-1-yl)-N-(2-fluoro-3-methoxyphenyl)benzamide] came in with an IC50 of 100 to 1000 nM.

In the case of `CC#CC(=O)N1CCCC[C@H]1c1nc(-c2ccc(OCc3cccc(F)c3)cc2)c2c(C)nccn12` [Example 140, (S)-1-(2-(1-(4-((3-fluorobenzyl)oxy)phenyl)-8-methylimidazo[1,5-a]pyrazin-3-yl)piperidin-1-yl)but-2-yn-1-one], the half-maximal inhibitory concentration (IC50) fell in the range of 100 to 1000 nM.

Compound `CC#CC(=O)N1CCC[C@H]1c1nc(-c2ccc(Oc3ccccc3OC)cc2)c2cnccn12` [Example 24, (S)-1-(2-(1-(4-(2-methoxyphenoxy)phenyl)imidazo[1,5-a]pyrazin-3-yl)pyrrolidin-1-yl)but-2-yn-1-one] displayed a half-maximal inhibitory concentration (IC50) of 1000 to 10000 nM.

`C=CC(=O)N1CC[C@@H](c2nc(-c3ccc(Oc4cccc(OC)c4F)cc3)c3c(O)nccn23)C1` [Example 113, (R)-1-(3-(1-(4-(2-fluoro-3-methoxyphenoxy)phenyl)-8-hydroxyimidazo[1,5-a]pyrazin-3-yl)pyrrolidin-1-yl)prop-2-en-1-one] gave an IC50 of 100 to 1000 nM.

As for `COc1cccc(Oc2ccc(-c3nc([C@@H]4CCCN(C(=O)/C(C#N)=C/C(C)(C)C)C4)n4ccncc34)cc2)c1F` [Example 2, (R,E)-2-(3-(1-(4-(2-Fluoro-3-methoxyphenoxy)phenyl)imidazo[1,5-a]pyrazin-3-yl)piperidine-1-carbonyl)-4,4-dimethylpent-2-enenitrile], the IC50 lay within 10 to 100 nM.

The compound `COc1cccc(Oc2ccc(-c3nc([C@@H]4CCC5CCC(=O)N5C4)n4ccncc34)cc2)c1F` (stereo partly drawn) [Example 213, (6R)-6-(1-(4-(2-fluoro-3-methoxyphenoxy)phenyl)imidazo[1,5-a]pyrazin-3-yl)hexahydroindolizin-3(2H)-one] had an IC50 of 100 to 1000 nM.

As usually defined, the IC50 is the point on the concentration scale where inhibition reaches its midpoint.
